In brackets after ≈: the same amount, converted by molar mass.
Key:
Type in all cases: functional
Escherichia coli [1] = assay: Antimicrobial activity against Escherichia coli K-12 3-AG300 harboring AcrB-F628F mutant gene
Escherichia coli [2] = assay: Antimicrobial activity against Escherichia coli K-12 3-AG300 harboring acrB::rpsLneo mutant gene
Escherichia coli [3] = assay: Antimicrobial activity against Escherichia coli K-12 3-AG300 harboring AcrB-615-628MexB mutant gene
Escherichia coli [4] = assay: Ratio of MIC for Escherichia coli K-12 3-AG300 harboring acrB::rpsLneo mutant gene to MIC for Escherichia coli K-12 3-AG300
Escherichia coli [5] = assay: Antimicrobial activity against Escherichia coli K-12 3-AG300 harboring AcrB-615-628MexB-N616 mutant gene
Escherichia coli [6] = assay: Antimicrobial activity against Escherichia coli K-12 3-AG300 harboring AcrB-615-628MexB-M626I mutant gene
Escherichia coli [7] = assay: Antimicrobial activity against Escherichia coli K-12 3-AG300 harboring AcrB-I626M mutant gene
Escherichia coli [8] = assay: Antimicrobial activity against Escherichia coli K-12 3-AG300 harboring AcrB-G616N mutant gene
Escherichia coli [9] = assay: Ratio of MIC for Escherichia coli K-12 3-AG300 harboring AcrB-615-628MexB mutant gene to MIC for Escherichia coli K-12 3-AG300
Escherichia coli [10] = assay: Ratio of MIC for Escherichia coli K-12 3-AG300 harboring AcrB-615-628MexB-M626I mutant gene to MIC for Escherichia coli K-12 3-AG300
Escherichia coli [11] = assay: Ratio of MIC for Escherichia coli K-12 3-AG300 harboring AcrB-G616N mutant gene to MIC for Escherichia coli K-12 3-AG300
Escherichia coli [12] = assay: Antimicrobial activity against Escherichia coli K-12 3-AG300 harboring AcrB-615-628MexB-S623N mutant gene
Escherichia coli [13] = assay: Antimicrobial activity against Escherichia coli K-12 3-AG300 harboring AcrB-N623S-Q624S mutant gene

Compound	MIC (Escherichia coli [1]) [µg/mL]	MIC (Escherichia coli [2]) [µg/mL]	MIC (Escherichia coli [3]) [µg/mL]	Ratio (Escherichia coli [4])	MIC (Escherichia coli [5]) [µg/mL]	MIC (Escherichia coli [6]) [µg/mL]	MIC (Escherichia coli [7]) [µg/mL]	MIC (Escherichia coli [8]) [µg/mL]	Ratio (Escherichia coli [9])	Ratio (Escherichia coli [10])	Ratio (Escherichia coli [11])	MIC (Escherichia coli [12]) [µg/mL]	MIC (Escherichia coli [13]) [µg/mL]
CCOc1ccc(-c2nc3cc(-c4nc5cc(N6CCN(C)CC6)ccc5[nH]4)ccc3[nH]2)cc1	4 (≈ 8.84 µM)	0.125 (≈ 0.276 µM)	4 (≈ 8.84 µM)	4	–	–	–	–	–	–	–	–	–
CC[C@H]1OC(=O)[C@H](C)[C@@H](O[C@H]2C[C@@](C)(OC)[C@@H](O)[C@H](C)O2)[C@H](C)[C@@H](O[C@@H]2O[C@H](C)C[C@H](N(C)C)[C@H]2O)[C@](C)(O)C[C@@H](C)CN(C)[C@H](C)[C@@H](O)[C@]1(C)O [AZITHROMYCIN]	64 (≈ 85.4 µM)	0.5 (≈ 0.668 µM)	16 (≈ 21.4 µM)	4	64 (≈ 85.4 µM)	8 (≈ 10.7 µM)	32 (≈ 42.7 µM)	16 (≈ 21.4 µM)	4	4	4	16 (≈ 21.4 µM)	–
CCBr [BROMOETHANE]	512 (≈ 4700 µM)	16 (≈ 147 µM)	512 (≈ 4700 µM)	4	512 (≈ 4700 µM)	512 (≈ 4700 µM)	1020 (≈ 9400 µM)	1020 (≈ 9400 µM)	–	–	–	512 (≈ 4700 µM)	1020 (≈ 9400 µM)
O=C(N[C@H](CO)[C@H](O)c1ccc([N+](=O)[O-])cc1)C(Cl)Cl [CHLORAMPHENICOL]	8 (≈ 24.8 µM)	1 (≈ 3.09 µM)	–	–	8 (≈ 24.8 µM)	8 (≈ 24.8 µM)	8 (≈ 24.8 µM)	8 (≈ 24.8 µM)	–	–	–	–	8 (≈ 24.8 µM)
CC[C@H]1OC(=O)[C@H](C)[C@@H](O[C@H]2C[C@@](C)(OC)[C@@H](O)[C@H](C)O2)[C@H](C)[C@@H](O[C@@H]2O[C@H](C)C[C@H](N(C)C)[C@H]2O)[C@](C)(OC)C[C@@H](C)C(=O)[C@H](C)[C@@H](O)[C@]1(C)O [CLARITHROMYCIN]	512 (≈ 685 µM)	4 (≈ 5.35 µM)	64 (≈ 85.6 µM)	4	512 (≈ 685 µM)	64 (≈ 85.6 µM)	512 (≈ 685 µM)	128 (≈ 171 µM)	4	4	4	128 (≈ 171 µM)	512 (≈ 685 µM)
CCC[C@@H]1C[C@@H](C(=O)N[C@@H]([C@H]2O[C@H](SC)[C@H](O)[C@@H](O)[C@H]2O)[C@H](C)Cl)N(C)C1 [CLINDAMYCIN]	256 (≈ 602 µM)	4 (≈ 9.41 µM)	256 (≈ 602 µM)	4	–	–	–	–	–	–	–	–	–
CC[C@H]1OC(=O)[C@H](C)[C@@H](O[C@H]2C[C@@](C)(OC)[C@@H](O)[C@H](C)O2)[C@H](C)[C@@H](O[C@@H]2O[C@H](C)C[C@H](N(C)C)[C@H]2O)[C@](C)(O)C[C@@H](C)C(=O)[C@H](C)[C@@H](O)[C@]1(C)O [ERYTHROMYCIN]	512 (≈ 698 µM)	4 (≈ 5.45 µM)	128 (≈ 174 µM)	4	256 (≈ 349 µM)	128 (≈ 174 µM)	512 (≈ 698 µM)	128 (≈ 174 µM)	4	4	4	256 (≈ 349 µM)	–
CC(=O)NC[C@H]1CN(c2ccc(N3CCOCC3)c(F)c2)C(=O)O1 [LINEZOLID]	512 (≈ 1520 µM)	16 (≈ 47.4 µM)	1020 (≈ 3040 µM)	4	1020 (≈ 3040 µM)	1020 (≈ 3040 µM)	512 (≈ 1520 µM)	512 (≈ 1520 µM)	–	–	–	1020 (≈ 3040 µM)	512 (≈ 1520 µM)
CN(C)c1ccc(O)c2c1C[C@H]1C[C@H]3[C@H](N(C)C)C(O)=C(C(N)=O)C(=O)[C@@]3(O)C(O)=C1C2=O [MINOCYCLINE]	4 (≈ 8.74 µM)	0.125 (≈ 0.273 µM)	2 (≈ 4.37 µM)	4	2 (≈ 4.37 µM)	4 (≈ 8.74 µM)	4 (≈ 8.74 µM)	4 (≈ 8.74 µM)	–	–	–	2 (≈ 4.37 µM)	4 (≈ 8.74 µM)
CO[C@@H]1[C@@H](OC(N)=O)[C@@H](O)[C@H](Oc2ccc3c(O)c(NC(=O)c4ccc(O)c(CC=C(C)C)c4)c(=O)oc3c2C)OC1(C)C [NOVOBIOCIN]	512 (≈ 836 µM)	4 (≈ 6.53 µM)	512 (≈ 836 µM)	4	512 (≈ 836 µM)	512 (≈ 836 µM)	512 (≈ 836 µM)	512 (≈ 836 µM)	–	–	–	1020 (≈ 1670 µM)	512 (≈ 836 µM)
Cc1onc(-c2ccccc2)c1C(=O)N[C@@H]1C(=O)N2[C@@H]1SC(C)(C)[C@@H]2C(=O)O [OXACILLIN]	512 (≈ 1280 µM)	0.5 (≈ 1.25 µM)	256 (≈ 638 µM)	4	256 (≈ 638 µM)	256 (≈ 638 µM)	512 (≈ 1280 µM)	256 (≈ 638 µM)	–	–	–	512 (≈ 1280 µM)	256 (≈ 638 µM)
